ChEMBL document CHEMBL6153162, “Receptor-Interacting Protein Kinase 1 (RIPK1) Inhibitors as Potential Treatment for Several Inflammatory and Neurodegenerative Diseases” (ACS Med Chem Lett, 2025)

Biological target: PI3-kinase p110-delta/p85-alpha (Homo sapiens, UniProt O00329)
Experiment: Inhibition of His-tagged full-length recombinant human PIK3CD/PIK3R1 extracted from baculovirus expression system incubated for 1 hr by FRET assay

Chain of PI3-kinase p110-delta/p85-alpha (P27986 whole entry): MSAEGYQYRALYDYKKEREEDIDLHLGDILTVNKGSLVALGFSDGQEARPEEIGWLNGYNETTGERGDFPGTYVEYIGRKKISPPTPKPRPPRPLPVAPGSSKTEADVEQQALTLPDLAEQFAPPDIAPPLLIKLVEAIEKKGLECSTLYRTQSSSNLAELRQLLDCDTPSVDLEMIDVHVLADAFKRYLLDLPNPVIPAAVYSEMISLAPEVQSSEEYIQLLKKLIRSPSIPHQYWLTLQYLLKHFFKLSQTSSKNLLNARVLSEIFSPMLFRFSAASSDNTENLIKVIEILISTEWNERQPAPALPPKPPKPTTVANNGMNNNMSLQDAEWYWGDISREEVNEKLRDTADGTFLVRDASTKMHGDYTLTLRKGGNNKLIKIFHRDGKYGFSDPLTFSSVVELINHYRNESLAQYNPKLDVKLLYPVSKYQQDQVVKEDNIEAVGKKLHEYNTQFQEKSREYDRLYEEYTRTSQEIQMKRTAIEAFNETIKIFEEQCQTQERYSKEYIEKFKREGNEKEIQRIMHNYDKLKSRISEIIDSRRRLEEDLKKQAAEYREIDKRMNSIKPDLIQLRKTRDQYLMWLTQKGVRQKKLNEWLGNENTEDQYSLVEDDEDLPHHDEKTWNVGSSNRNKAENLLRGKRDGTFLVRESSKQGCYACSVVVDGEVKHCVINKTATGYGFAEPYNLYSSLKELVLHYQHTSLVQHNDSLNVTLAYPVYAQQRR
Chain of PI3-kinase p110-delta/p85-alpha (O00329 whole entry): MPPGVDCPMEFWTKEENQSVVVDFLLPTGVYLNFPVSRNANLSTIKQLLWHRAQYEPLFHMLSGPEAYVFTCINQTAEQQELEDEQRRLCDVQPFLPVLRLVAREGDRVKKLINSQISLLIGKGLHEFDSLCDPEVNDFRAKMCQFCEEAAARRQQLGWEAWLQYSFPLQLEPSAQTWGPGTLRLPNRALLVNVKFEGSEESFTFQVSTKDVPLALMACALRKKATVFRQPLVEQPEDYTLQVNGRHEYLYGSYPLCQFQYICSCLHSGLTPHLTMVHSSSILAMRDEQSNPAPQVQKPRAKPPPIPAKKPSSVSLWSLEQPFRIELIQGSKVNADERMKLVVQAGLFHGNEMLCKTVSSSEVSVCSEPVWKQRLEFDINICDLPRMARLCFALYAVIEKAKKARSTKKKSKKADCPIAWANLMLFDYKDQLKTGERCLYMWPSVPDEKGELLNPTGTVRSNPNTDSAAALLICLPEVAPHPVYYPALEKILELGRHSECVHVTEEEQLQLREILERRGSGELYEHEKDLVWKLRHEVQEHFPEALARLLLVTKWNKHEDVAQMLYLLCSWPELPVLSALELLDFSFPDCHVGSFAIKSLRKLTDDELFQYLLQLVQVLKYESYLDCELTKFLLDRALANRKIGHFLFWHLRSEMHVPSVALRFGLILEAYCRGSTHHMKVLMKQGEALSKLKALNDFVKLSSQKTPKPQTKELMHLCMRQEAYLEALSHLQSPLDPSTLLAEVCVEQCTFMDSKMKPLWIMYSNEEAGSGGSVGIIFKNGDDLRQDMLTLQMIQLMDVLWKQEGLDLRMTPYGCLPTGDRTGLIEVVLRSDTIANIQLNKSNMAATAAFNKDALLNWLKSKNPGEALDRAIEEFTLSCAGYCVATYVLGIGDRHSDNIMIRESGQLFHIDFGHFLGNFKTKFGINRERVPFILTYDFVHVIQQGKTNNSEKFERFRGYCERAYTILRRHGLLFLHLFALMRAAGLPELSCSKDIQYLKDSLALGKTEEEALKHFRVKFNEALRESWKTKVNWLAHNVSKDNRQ

SMILES	IC50 [nM]
Cc1ccc(-c2ccn3nc(N)nc3c2)c(F)c1C(=O)NC(CF)CC(O)c1ccc(Cl)cc1 (stereo not drawn)	> 15
COc1c(F)cccc1C(O)CCNC(=O)c1c(C)ccc(-c2ccn3nc(N)nc3c2)c1F (single isomer, unassigned)	15
Cc1ccc(-c2ccn3nc(N)nc3c2)c(F)c1C(=O)NC[C@@H](F)[C@H](O)c1ccc(Cl)cc1	> 15
Cc1ccc(-c2ccn3nc(N)nc3c2)c(F)c1C(=O)NCCC(O)c1ccc(Cl)cn1 (stereo not drawn)	> 15
Cc1cc(F)c(-c2ccn3nc(N)nc3c2)cc1C(=O)NCCC(O)c1ccc(C(F)(F)F)cc1 (racemic)	> 15

More lines, now with the values ahead:

IC50 [nM]	SMILES
> 15	Cc1ccc(-c2ccn3nc(N)nc3c2)c(F)c1C(=O)NCC(F)(F)C(O)c1ccc(Cl)c(Cl)c1 (single isomer, unassigned)
> 15	Cc1ccc(-c2ccn3nc(N)nc3c2)c(F)c1C(=O)NCC(F)(F)C(O)C1CC(F)(F)C1 (single isomer, unassigned)
> 15	Cc1ccc(-c2ccn3nc(N)nc3c2)c(F)c1C(=O)NCCC(F)c1ccc(Cl)cc1 (racemic)
